Read-outs that look alike come from different tables or passages of the source.
Columns and labels:
Assay type in all cases: cell-based
[1] = system: NFKB1; test: Gene expression custom microarray, human skin fibroblasts (Example 1): NFKB1; details: for fold induction at 10 µM: Skin fibroblast, read-out: NFKB1↓ gene expression, fold increase or decrease vs untreated cells
From the text: (§1) Cell cultures: A human skin fibroblast cell culture (or cultures) was obtained through the Coriell Cell Repository from the National Institute on Aging Cell Repository (Camden, N.J.), or Promocell GmbH (Heidelberg, Germany). The initial culture was selected from the following cell lines: AG13066, AG11557, AG11796 or GM03651E. The cell lines were derived from donors as follows:
(§2) Experimental phase: When the appropriate quantity of cells had been grown, they were detached as described above, but at the final step were seeded into each well of one or more 6 well dishes. Each well received 2 ml of the cell suspension so they were seeded equally. The dishes were returned to the incubator until 85-95% confluency was reached.
(§3) It is at this stage that all wells were rinsed in PBS after aspirating the growth media. The compound(s) to be tested were previously mixed into a suitable solvent (e.g., DMSO or ethanol) that can be diluted to the desired concentration of test compound (10 μl) in the culture wells without exceeding maximum solvent concentrations and adversely effecting cell viability, and mixed with basal media. NOTE: Standard maximum levels of solvent are 0.1% for DMSO and 0.5% for ETOH.
(§4) Every 2 wells on the 6 well plate served as a biological replicate for the purposes of RNA isolation and genetic expression evaluations making each 6 well dish an n=3 for the test compound(s) contained in the media. Negative control plates (no test compound(s) and only basal media) were also generated. The plates were returned to the incubator for 24 hrs.
(§5) At the end of the 24 hr time period, the plates were removed from the incubator, the test media aspirated, and the cells rinsed with PBS. RNA isolation is performed using the BioRad Aurum Total RNA Mini Kit (Hercules, Calif.) per manufacturer's protocol; which is described, in brief, below: • Add 350 μl of lysis buffer to each well. Pipet multiple times to ensure thorough lysis. Add lysed cells to the collection tube. • Add 350 μl of 70% ETOH to the collection tube and mix thoroughly. • Pipet the generated lysate onto the spin column placed in a new 2 ml tube. Centrifuge for 30 sec between 8,000 and 10,000 g. • Place the spin column containing the now bound RNA, in a new 2 ml tube. Add 700 μl of low stringency wash solution to the spin column. Centrifuge for 30 sec between 8,000 and 10,000 g. Discard the flow through and replace spin column. • Add 80 μl of DNase I dilution to the spin column and incubate at room temperature for 15 minutes. • Add 700 μl of high stringency wash solution to the column and centrifuge for 30 sec between 8,000 and 10,000 g. Discard flow through. • Add 700 μl of low stringency wash solution to the column and centrifuge for 60 sec between 8,000 and 10,000 g. Discard flow through. • Centrifuge for 2 minutes to remove residual wash solution. • Transfer spin column to new 1.5 ml collection tube and add 80 μl of elution solution to the column. Allow 1 minute for saturation of the membrane and then centrifuge for 2 minutes to complete the RNA elution. • Quantify the quantity of RNA and store at −20 C° until use (no more than 1 month)
(§6) The genes tested were: • Cannabinoid receptor 1 (CB1(CNR1)) • Cannabinoid receptor 2 (CB2 (CNR2)) • Fatty acid amide hydrolase (FAAH) • Monoacylglycerol lipase (MGLL, i.e., MAGL) • Peroxisome proliferator-activated receptor gamma (PPARG) • Nuclear factor kappa-light-chain-enhancer of activated B cells (NFκβ) • Interleukin 1 Alpha (IL1alpha) • Cyclooxygenase 1 (PTGS1, i.e., COX1) • Transient receptor potential cation channel subfamily A member 1 (TRPA1) • Transient receptor potential cation channel subfamily V member 1 (TRPV1) • Transient receptor potential cation channel subfamily M member 8 (TRPM8) • Hemoglobin Subunit Beta (HBB) REFERENCE GENE • Ribosomal Protein L13a (RPL13A) REFERENCE GENE

[2] = system: MAGL; test: Gene expression custom microarray, human skin fibroblasts (Example 1): MAGL; details: for MAGL↓ gene expression, fold increase or decrease vs untreated cells: human skin fibroblasts, 10 uM, 24 hr
From the text: as §1, §2
as §3, with “ETOH. The concentration of each test compound is found in Tables 1 & 2.” for “ETOH.”
as §4, §5
(§7) The genes tested were: • Cannabinoid receptor 1 (CB1(CNR1)) • Cannabinoid receptor 2 (CB2 (CNR2)) • Fatty acid amide hydrolase (FAAH) • Monoacylglycerol lipase (MGLL, i.e., MAGL) • Peroxisome proliferator-activated receptor gamma (PPARG) • Nuclear factor kappa-light-chain-enhancer of activated B cells (NFκβ) • Interleukin 1 Alpha (IL1alpha) • Cyclooxygenase 1 (PTGS1, i.e., COX1) • Transient receptor potential cation channel subfamily A member 1 (TRPA1) • Transient receptor potential cation channel subfamily V member 1 (TRPV1) • Transient receptor potential cation channel subfamily M member 8 (TRPM8) • Hemoglobin Subunit Beta (HBB) REFERENCE GENE • Ribosomal Protein L13a (RPL13A) REFERENCE GENE […]

[3] = system: FAAH; test: Gene expression custom microarray, human skin fibroblasts (Example 1): FAAH; details: for fold induction at 10 µM: Skin fibroblast, read-out: FAAH↓ gene expression, fold increase or decrease vs untreated cells
From the text: as §1, §2
as §3, with “ETOH. The concentration of each test compound is found in Tables 1 & 2.” for “ETOH.”
as §4, §5, §7

[4] = system: PTGS1; test: Gene expression custom microarray, human skin fibroblasts (Example 1): PTGS1; details: for PTGS1↓ gene expression, fold increase or decrease vs untreated cells: human skin fibroblasts, 10 uM, 24 hr
From the text: as §1, §2
as §3, with “ETOH. The concentration of each test compound is found in Tables 1 & 2.” for “ETOH.”
as §4, §5, §7

[5] = system: PPARG; test: Gene expression custom microarray, human skin fibroblasts (Example 1): PPARG; details: for fold induction at 10 µM: Skin fibroblast, read-out: PPARG↑ gene expression, fold increase or decrease vs untreated cells
From the text: as §1, §2, §3, §4, §5, §6

[6] = system: CNR2; test: Gene expression custom microarray, human skin fibroblasts (Example 1): CNR2; details: human skin fibroblasts, 10 uM, 24 hr; for fold induction at 10 µM: Skin fibroblast, read-out: CNR2↑ gene expression, fold increase or decrease vs untreated cells
From the text: as §1, §2
as §3, with “ETOH. The concentration of each test compound is found in Tables 1 & 2.” for “ETOH.”
as §4, §5, §7

[7] = system: CNR1; test: Gene expression custom microarray, human skin fibroblasts (Example 1): CNR1; details: human skin fibroblasts, 10 uM, 24 hr; for fold induction at 10 µM: Skin fibroblast, read-out: CNR1↑ gene expression, fold increase or decrease vs untreated cells
From the text: as §1, §2
as §3, with “ETOH. The concentration of each test compound is found in Tables 1 & 2.” for “ETOH.”
as §4, §5, §7

[8] = system: TRPM8; test: Gene expression custom microarray, human skin fibroblasts (Example 1): TRPM8; details: 24 hr; for TRPM8↑ gene expression, fold increase or decrease vs untreated cells: 10 uM; for fold induction at 10 µM: Skin fibroblast, read-out: TRPM8↑ gene expression, fold increase or decrease vs untreated cells
From the text: as §1, §2
as §3, with “ETOH. The concentration of each test compound is found in Tables 1 & 2.” for “ETOH.”
as §4, §5, §7

[9] = system: TRPA1; test: Gene expression custom microarray, human skin fibroblasts (Example 1): TRPA1; details: human skin fibroblasts, 10 uM, 24 hr; for fold induction at 10 µM: Skin fibroblast, read-out: TRPA1↑ gene expression, fold increase or decrease vs untreated cells
From the text: as §1, §2
as §3, with “ETOH. The concentration of each test compound is found in Tables 1 & 2.” for “ETOH.”
as §4, §5, §7

[10] = system: IL1A; test: Gene expression custom microarray, human skin fibroblasts (Example 1): IL1A; details: 24 hr; for IL1A↓ gene expression, fold increase or decrease vs untreated cells: 10 uM; for fold induction at 10 µM: Skin fibroblast, read-out: IL1A↓ gene expression, fold increase or decrease vs untreated cells
From the text: as §1, §2
as §3, with “ETOH. The concentration of each test compound is found in Tables 1 & 2.” for “ETOH.”
as §4, §5, §7

[11] = system: TRPV1; test: Gene expression custom microarray, human skin fibroblasts (Example 1): TRPV1; details: 10 uM, 24 hr
From the text: as §1, §2
as §3, with “ETOH. The concentration of each test compound is found in Tables 1 & 2.” for “ETOH.”
as §4
At the end of the 24 hr time period, the plates were removed from the incubator, the test media aspirated, and the cells rinsed with PBS. RNA isolation is performed using the BioRad Aurum Total RNA Mini Kit (Hercules, Calif.) per manufacturer's protocol; which is described, in brief, below: • Add 350 μl of lysis buffer to each well. Pipet multiple times to ensure thorough lysis. Add lysed cells to the collection tube. • Add 350 μl of 70% ETOH to the collection tube and mix thoroughly. • Pipet the generated lysate onto the spin column placed in a new 2 ml tube. Centrifuge for 30 sec between 8,000 and 10,000 g. • Place the spin column containing the now bound RNA, in a new 2 ml tube. Add 700 μl of low stringency wash solution to the spin column. Centrifuge for 30 sec between 8,000 and 10,000 g. […] Allow 1 minute for saturation of the membrane and then centrifuge for 2 minutes to complete the RNA elution. • Quantify the quantity of RNA and store at −20 C° until use (no more than 1 month) […]

[12] = human skin fibroblasts, 10 uM, 24 hr

| SMILES | NFKB1↓ gene expression, fold increase or decrease vs untreated cells [1, 12] [fold] | MAGL↓ gene expression, fold increase or decrease vs untreated cells [2] [fold] | FAAH↓ gene expression, fold increase or decrease vs untreated cells [3, 12] [fold] | CNR2↑ gene expression, fold increase or decrease vs untreated cells [6] [fold] | CNR1↑ gene expression, fold increase or decrease vs untreated cells [7] [fold] | TRPM8↑ gene expression, fold increase or decrease vs untreated cells [8] [fold] | TRPA1↑ gene expression, fold increase or decrease vs untreated cells [9] [fold] | PTGS1↓ gene expression, fold increase or decrease vs untreated cells [4] [fold] | PPARG↑ gene expression, fold increase or decrease vs untreated cells [5, 12] [fold] | IL1A↓ gene expression, fold increase or decrease vs untreated cells [10] [fold] | TRPV1↑ gene expression, fold increase or decrease vs untreated cells [11] [fold] | fold induction at 10 µM [3, 12] | fold induction at 10 µM [6] | fold induction at 10 µM [7] | fold induction at 10 µM [8] | fold induction at 10 µM [9] | fold induction at 10 µM [10] | also measured |
| --- | --- | --- | --- | --- | --- | --- | --- | --- | --- | --- | --- | --- | --- | --- | --- | --- | --- | --- |
| O=c1cc(-c2ccccc2)oc2cc(O)ccc12 [7-Hydroxyflavone] |  |  |  |  |  |  |  |  |  |  |  |  |  |  |  |  |  | fold induction at 10 µM ([1]; Homo sapiens, 24 h): 1.1; fold induction at 10 µM ([2]; Homo sapiens, Skin fibroblast, 24 h, read-out: MAGL↓ gene expression, fold increase or decrease vs untreated cells): 2; fold induction at 10 µM ([3]; Homo sapiens, 24 h): 1.2; fold induction at 10 µM ([4]; Homo sapiens, Skin fibroblast, 24 h, read-out: PTGS1↓ gene expression, fold increase or decrease vs untreated cells): 1.4; fold induction at 10 µM ([5]; Homo sapiens, 24 h): 1.4 |
| C=C1CC/C=C(\C)CC[C@@H]2[C@@H]1CC2(C)C [B-Caryphyllene, B-Caryophyllene] | −1.3 | 1 | −1.6 | 0 | 0 | 5.5 | 0 | −1.5 | −1.6 | 0 | 2 |  |  |  |  |  |  |  |
| COc1cc(/C=C/C(=O)CC(=O)/C=C/c2ccc(O)c(OC)c2)ccc1O [Curcumin] |  |  |  |  |  |  |  |  |  |  |  | 1.8 | 55.4 | 47.4 | 47.9 | 4.9 | 4.9 | fold induction at 10 µM [1, 12]: 1.1 |
| C=CCc1ccc(O)c(OC)c1 [Eugenol] |  |  |  |  |  |  |  |  |  |  |  | 3 | 109 | 148 | 152 | 30.1 | 39.2 | fold induction at 10 µM [5, 12]: 1.6 |
| C[C@@H]1C(=O)O[C@H]2[C@H](O)[C@@]34[C@H]5C[C@@H](C(C)(C)C)[C@]36[C@@H](OC(=O)[C@@H]6O)O[C@@]4(C(=O)O5)[C@@]12O [Ginkolide, Ginkolide B] | −1.2 | 2.3 | −1.1 | −1.2 | 1.1 | 2.1 | 1.1 | −1.3 | −1.3 | −3.3 | −2.6 |  |  |  |  |  |  |  |
